Reference: the supplement of paper PMC10307832

Legend:
Assay in all cases: relative viability (nuclei count vs DMSO), 5 days (fraction); higher = more cells survive
[1] = test system: A-427
How it was run: (§1)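 Relative viability is defined as nuclei in treated wells over nuclei in vehicle wells. Duplicate plates were run and medians reported. Lung cancer cell lines in 1536-well plates were dosed by pin tool one day after seeding, with one drug or with a fixed anchor-drug dose plus five library-drug doses (not always all listed) in √10 steps, and nuclei were counted after 5 days.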

[2] = test system: H3255
How it was run: as §1

[3] = test system: HARA
How it was run: as §1

[4] = test system: HCC-15
How it was run: as §1

[5] = test system: HCC-366
How it was run: as §1

[6] = test system: LXF-289
How it was run: as §1

[7] = test system: NCI-H1437
How it was run: as §1

[8] = test system: NCI-H1755
How it was run: as §1

[9] = test system: NCI-H1793
How it was run: as §1

[10] = test system: NCI-H1915
How it was run: as §1

[11] = test system: NCI-H1975
How it was run: as §1

[12] = test system: NCI-H2009
How it was run: as §1

[13] = test system: NCI-H2023
How it was run: as §1

[14] = test system: NCI-H2405
How it was run: as §1

[15] = test system: NCI-H3122
How it was run: as §1

[16] = test system: NCI-H441
How it was run: as §1

[17] = test system: NCI-H460
How it was run: as §1

[18] = test system: NCI-H596
How it was run: as §1

[19] = test system: NCI-H650
How it was run: as §1

[20] = test system: PC-14
How it was run: as §1

[21] = test system: PC-3 [JPC-3]
How it was run: as §1

[22] = test system: SK-LU-1
How it was run: as §1

[23] = test system: UMC-11
How it was run: as §1

Compound Cc1cnc(-c2cnc(NCCNc3ccc(C#N)cn3)nc2-c2ccc(Cl)cc2Cl)[nH]1 + Cc1cc(Nc2cc(N3CCN(C)CC3)nc(Sc3ccc(NC(=O)C4CC4)cc3)n2)n[nH]1 [Tozasertib] (partner 0.1 µM) has a relative viability ([1]; first compound 0.08 µM) of 0.232, a relative viability ([1]; first compound 0.253 µM) of 0.194 and a relative viability ([1]; first compound 0.8 µM) of 0.235. It also gave a relative viability ([1]; first compound 2.53 µM) of 0.186, a relative viability ([2]; first compound 0.08 µM) of 0.951 and a relative viability ([2]; first compound 0.253 µM) of 0.511. For the same compound, the relative viability ([2]; first compound 0.8 µM) was 0.593, the relative viability ([2]; first compound 2.53 µM) was 0.65 and the relative viability ([3]; first compound 0.08 µM) was 0.116. For the same compound, the relative viability ([3]; first compound 0.253 µM) was 0.113, the relative viability ([3]; first compound 0.8 µM) was 0.116 and the relative viability ([3]; first compound 2.53 µM) was 0.1. For the same compound, the relative viability ([4]; first compound 0.08 µM) was 0.346, the relative viability ([4]; first compound 0.253 µM) was 0.373 and the relative viability ([4]; first compound 0.8 µM) was 0.473. The relative viability ([4]; first compound 2.53 µM) was 0.279, the relative viability ([5]; first compound 0.08 µM) was 0.0773 and the relative viability ([5]; first compound 0.253 µM) was 0.0701. For the same compound, the relative viability ([5]; first compound 0.8 µM) was 0.071, the relative viability ([5]; first compound 2.53 µM) was 0.0493 and the relative viability ([6]; first compound 0.08 µM) was 0.223. For the same compound, the relative viability ([6]; first compound 0.253 µM) was 0.155, the relative viability ([6]; first compound 0.8 µM) was 0.18 and the relative viability ([6]; first compound 2.53 µM) was 0.161. The relative viability ([7]; first compound 0.08 µM) was 0.456, the relative viability ([7]; first compound 0.253 µM) was 0.444 and the relative viability ([7]; first compound 0.8 µM) was 0.431. For the same compound, the relative viability ([7]; first compound 2.53 µM) was 0.371, the relative viability ([8]; first compound 0.08 µM) was 0.585 and the relative viability ([8]; first compound 0.253 µM) was 0.521. The relative viability ([8]; first compound 0.8 µM) was 0.595, the relative viability ([8]; first compound 2.53 µM) was 0.539 and the relative viability ([9]; first compound 0.08 µM) was 0.347. For the same compound, the relative viability ([9]; first compound 0.253 µM) was 0.276, the relative viability ([9]; first compound 0.8 µM) was 0.257 and the relative viability ([9]; first compound 2.53 µM) was 0.182. It also gave a relative viability ([10]; first compound 0.08 µM) of 0.404, a relative viability ([10]; first compound 0.253 µM) of 0.322 and a relative viability ([10]; first compound 0.8 µM) of 0.342. It also gave a relative viability ([10]; first compound 2.53 µM) of 0.374, a relative viability ([11]; first compound 0.08 µM) of 0.717 and a relative viability ([11]; first compound 0.253 µM) of 0.659. The relative viability ([11]; first compound 0.8 µM) was 0.508, the relative viability ([11]; first compound 2.53 µM) was 0.132 and the relative viability ([12]; first compound 0.08 µM) was 0.734. The relative viability ([12]; first compound 0.253 µM) was 0.695, the relative viability ([12]; first compound 0.8 µM) was 0.794 and the relative viability ([12]; first compound 2.53 µM) was 0.452. It also gave a relative viability ([13]; first compound 0.08 µM) of 0.353, a relative viability ([13]; first compound 0.253 µM) of 0.362 and a relative viability ([13]; first compound 0.8 µM) of 0.325. For the same compound, the relative viability ([13]; first compound 2.53 µM) was 0.181, the relative viability ([14]; first compound 0.08 µM) was 0.764 and the relative viability ([14]; first compound 0.253 µM) was 0.697. The relative viability ([14]; first compound 0.8 µM) was 0.714, the relative viability ([14]; first compound 2.53 µM) was 0.505 and the relative viability ([15]; first compound 0.08 µM) was 0.414. For the same compound, the relative viability ([15]; first compound 0.8 µM) was 0.392, the relative viability ([15]; first compound 2.53 µM) was 0.33 and the relative viability ([16]; first compound 0.08 µM) was 0.775. For the same compound, the relative viability ([16]; first compound 0.253 µM) was 0.654, the relative viability ([16]; first compound 0.8 µM) was 0.602 and the relative viability ([16]; first compound 2.53 µM) was 0.405. The relative viability ([17]; first compound 0.08 µM) was 0.48, the relative viability ([17]; first compound 0.253 µM) was 0.152 and the relative viability ([17]; first compound 0.8 µM) was 0.101. The relative viability ([17]; first compound 2.53 µM) was 0.137, the relative viability ([18]; first compound 0.08 µM) was 0.925 and the relative viability ([18]; first compound 0.253 µM) was 0.752. It also gave a relative viability ([18]; first compound 0.8 µM) of 0.839, a relative viability ([18]; first compound 2.53 µM) of 0.793 and a relative viability ([19]; first compound 0.08 µM) of 0.726. For the same compound, the relative viability ([19]; first compound 0.253 µM) was 0.746, the relative viability ([19]; first compound 0.8 µM) was 0.675 and the relative viability ([19]; first compound 2.53 µM) was 0.734. It also gave a relative viability ([20]; first compound 0.08 µM) of 0.611, a relative viability ([20]; first compound 0.253 µM) of 0.47 and a relative viability ([20]; first compound 0.8 µM) of 0.551. For the same compound, the relative viability ([20]; first compound 2.53 µM) was 0.549, the relative viability ([21]; first compound 0.08 µM) was 0.872 and the relative viability ([21]; first compound 0.253 µM) was 0.849. The relative viability ([21]; first compound 0.8 µM) was 0.819, the relative viability ([21]; first compound 2.53 µM) was 0.719 and the relative viability ([22]; first compound 0.08 µM) was 0.314. The relative viability ([22]; first compound 0.253 µM) was 0.348, the relative viability ([22]; first compound 0.8 µM) was 0.426 and the relative viability ([22]; first compound 2.53 µM) was 0.535. For the same compound, the relative viability ([23]; first compound 0.08 µM) was 0.19, the relative viability ([23]; first compound 0.253 µM) was 0.191 and the relative viability ([23]; first compound 0.8 µM) was 0.227. The relative viability ([23]; first compound 2.53 µM) was 0.213.
